Results on two compounds are retold here after patent publication US11759480B2, “Compositions and methods for CAR T cell therapy” (ENDOCYTE, INC., priority 2017, dated 2023).

The subject of one data set is OV90. Briefly: FITC-CAR-T/EC17 therapy, OV90 model (Example 28). It counts as in vivo, NSG mice. The conditions noted are these: 500 nmol/kg weekly, 5 million FITC-CAR-T. How it is done: To test whether FITC-CAR-T/EC17 therapy has anti-tumor activity in various FR+ tumor models, NSG mice were subcutaneously implanted with MDA-MB-231 (triple negative breast cancer cell line), OV90 (human ovarian cancer cell line), KB (human cervical adenocarcinoma cell line), SKOV-3 (human ovarian carcinoma cell line), or HEK293-FRa (HEK293 stably-transfected with human FRa). When tumor size reached […], one dose of EC17 at 500 nmol/kg of body weight was injected by tail vein followed with administering of 5 million FITC-CAR-T cells 4 hours later. 500 nmol/kg EC17 was dosed once every week after the initial EC17/CAR-T administration (about day 7), tumor size and body weights of mice were monitored three times per week. The EC17 dosing days were labeled as green dashed vertical lines in the graph. […] EC17 dose-dependent temporary body weight loss was also observed in all tumor bearing mice, indicating the activation of CAR-Ts is EC17-dependent in these mice.

The next data set has as its system MDA-MB-231 cells. In words: Control of CRS with bridge molecules in vivo (Example 43). Also on record: species or system NSG mice. How it is done:
Mice were maintained on folic acid-deficient diet (TD.95247, Envigo) in order to reduce the level of folic acid in mice to a physiological levels found in humans. Tumors were measured every other day with calipers, and tumor volume was calculated according to equation: Tumor volume=½(L×W^2) where L is the longest axis of the tumor and W is the axis perpendicular to L. Mouse blood was also collected to measure cytokine levels (e.g. IL-2, IL-6, IFNγ, and TNFα) using LEGENDplex bead-based immunoassay (Biolegend, CA) and systemic toxicity was monitored by measuring body weight loss. All animal care and use followed by National Institutes of Health (NIH) guidelines and all experimental protocols were approved by the Purdue Animal Care and Use Committee.

Another data set deals with MDA-MB-231. In words: FITC-Folate dose escalation study in vivo (Example 20). How it is done: To test whether gradual escalation of FITC-Folate dose can minimize CART cell mediated toxicity without compromising anti-tumor efficacy of CAR T cells, an experiment was designed. A dose of FITC-Folate (0.05 nmole/kg) was introduced first into NSG mice bearing MDA-MB-231 (tumor volume about 50-100 mm^3) along with anti-FITC CAR T cell injections (using about 15×10^6 cells). An additional two doses of about 0.05 nmole/kg FITC-Folate was administered to the mice. […] After a gradual increase of FITC-Folate dose, mice were treated with a 500 nmole/kg dose of FITC-Folate. […] General toxicity of each treatment group was monitored by measuring body weight loss. Tumor volume was measured to monitor anti-FITC CAR T cells' anti-tumor efficacy.

For the next data set, the system named is KB cells. Briefly: Anti-fluorescein CAR T cell activity against KB cells in vitro (Example 43). The conditions noted are these: CAR T:KB 10 to 1. It counts as cell-based. How it is done: FR positive cancer cell lines (e.g. KB or MDA-MB-231 cells) were seeded at density of 10^4 cells/100 μl media into 96 well plates and grown overnight. Anti-fluorescein CAR T cells were added to each well in the absence or presence of bridge molecules. After co-incubation for 6-24 hours, plates were centrifuged at 350×g for 10 min to remove debris and supernatants were analyzed for lactate dehydrogenase release (cell death analysis) using Pierce™ LDH cytotoxicity assay kit (Thermo Fisher Scientific, MA) and interferon γ (IFNγ) levels using human IFNγ ELISA kit (Biolegend, CA), while pellets were either evaluated for CAR T cell activation by staining with anti-human CD69 APC (Clone: FN50, Biolegend, CA) or examined for CAR T cell proliferation by culturing for 5 days in TexMACS™ medium (Miltenyi Biotech Inc, CA) containing 1% penicillin and streptomycin sulfate and quantitating by flow cytometry using the intrinsic GFP fluorescence and staining with anti-human CD3 APC antibody (Clone:HIT3a, Biolegend, CA).

Data set [1] relates to MDA-MB-231 solid tumor xenografts. The format is in vivo. How it is done:
MDA-MB-231 cells were subcutaneously injected into the shoulders of NSG mice (Jackson Laboratory) to establish solid tumor xenografts. When tumor volume reached around 50-100 mm^3, anti-FITC CAR T cells (15×10^6 cells) were intravenously introduced into tumor-bearing mice. Twenty NSG mice were divided into four study groups (5 animals in each group). The first group was treated with anti-FITC CAR T cells with phosphate-buffered saline (PBS) as a negative control. The second, third, and fourth groups were treated with anti-FITC CAR T cells with FITC-Folate (500 nmole/kg) every other day. Once a significant toxicity (e.g. serious loss of body weight) was detected, these groups were treated with either: continued FITC-Folate administration (second group); discontinuation of FITC-Folate administration until the mice recovered (third group); or a mixture of 100-fold excess of EC0923 (i.e. free folate) and FITC-Folate until the mice recovered (fourth group). The body weight was measured regularly to monitor toxicity. In addition, the blood concentration of interferon (IFN)-gamma for each treatment group was measured to monitor the degree of anti-FITC CAR T activation. Finally, tumor volume was measured to identify anti-tumor efficacy in each treatment group.

Another data set deals with MDA-MB-231 tumors. The settings on record: mouse, in vivo.

Molecules are shown by their SMILES. Like-named read-outs stand apart in the source and are kept apart here. Some results are limits rather than exact numbers.

Experimental for MDA-MB-231 tumors: To evaluate whether mice with FITC-CAR-T therapy related sCRS can be rescued by using competitors which may displace EC17 from either FITC-CAR-T or FR+ tumor cells, 49 NSG mice bearing MDA-MB-231 tumors (150-250 mm3) were administered with excess FITC-CAR-T cells (8 million), 36 of them were then dosed with 500 nmol/kg EC17 48 hours post CAR-T administration, 6 of them were not dosed with EC17 and were used as “No EC17” control, and 7 of them were dosed with 260 umol/kg sodium fluorescein (no EC17 but Fluorescein) to test its toxicity. […] Each group was i.v. injected with 10 umol/kg of Leucovorin, or 10 umol/kg folic acid, or 260 umol/kg sodium fluorescein, or nothing as an un-rescued control. […] Mouse body weight changes were also monitored as the indication of toxicity. […] To evaluate whether the rescue injections affect the anti-tumor activity of FITC-CAR-T cells, these mice were dosed with 500 nmol/kg EC17 twice per week (days 9, 11, 15, 18, 22, 25, etc.) and the tumor size was monitored.

Consider `Nc1nc2ncc(CNc3ccc(C(=O)NC(CCC(=O)NCCNC(=S)Nc4ccc(-c5c6ccc(=O)cc-6oc6cc(O)ccc56)c(C(=O)O)c4)C(=O)O)cc3)nc2c(=O)[nH]1` (stereo not drawn) [EC17, FITC-Folate], for which the cures in the data set with OV90 is on record as 50%. The stable disease with OV90 is 50%. Moreover, the tumor outcome with MDA-MB-231 cells (500 nmole/kg, days 4 and 6 omitted) is on record as “complete tumor eradication”; in the data set with MDA-MB-231 cells (continuously treated), “rapid increase in tumor growth”; in the data set on MDA-MB-231 cells (gradual dose escalation regimen), “complete cures”; with MDA-MB-231 cells (interrupted dosing), “complete remission of their tumors”; in the data set on MDA-MB-231 cells (one dose per week) it was “complete cures”. For the same compound, the “mice requiring euthanasia by day 8” value with MDA-MB-231 cells (15×10^6 CAR T cells, continuous alternate day 500 nmole/kg) was “three of the mice”. Besides, the body weight result in the data set on MDA-MB-231 cells (continuous dosing of 500 nmole/kg, 15×10^6 CAR T cells) was “dramatic and continuous weight loss”; in the data set with MDA-MB-231 cells (interrupted dosing (days 4 and 6 omitted)) it was “only a moderate weight loss from which they rapidly recovered”; in the data set on MDA-MB-231 cells (single injection per week), “no weight loss”; in the data set on MDA-MB-231 cells (three doses per week, 5×10^6 CAR T cells), “significant animal weight loss”; in the data set with MDA-MB-231 cells (tumor-free mice) it was “no weight loss was detected”. The therapeutic benefit result with MDA-MB-231 cells (continuous dosing schedule) is “little therapeutic benefit”. Besides, in the data set with MDA-MB-231 cells (escalation 0.5 to 500 nmole/kg, 15×10^6 CAR T cells), the “time to resolution of transient weight loss” value is at most 4 days. The body weight loss in the data set on MDA-MB-231 cells (tumor-bearing mice, within 4 days, 5×10^6 CAR T cells + 500 nmoles/kg) is given as around 8%. The toxicity entry with MDA-MB-231 cells (two doses per week) was “less toxicity”; in the data set with MDA-MB-231 (gradual escalation 0.05 to 500 nmole/kg, 15×10^6 CAR T cells), “no serious toxicity”. Besides, the “effect on CAR T cells' anti-tumor efficacy” value with MDA-MB-231 (gradual escalation) is “did not negatively affect”. Moreover, the IFNγ production entry with KB cells (100 nM) was “induced”. In addition, the “proliferation of anti-fluorescein CAR T cells” value with KB cells was “induced”. Further, the IFN-gamma blood concentration entry is recorded as “decreased” in data set [1] (break group) and “a significant amount IFN-gamma was detected” in data set [1] (continued dose group). In addition, the complete response in data set [1] (break group) is reported as 100%. Moreover, the “survival of mice at the first week of treatment” value in data set [1] (continued dose group) is 40%. In addition, the tumor response result in data set [1] (continued dose group) is “delay of tumor growth”.
On to `O=C([O-])c1ccccc1-c1c2ccc(=O)cc-2oc2cc([O-])ccc12.[Na+].[Na+]` [sodium fluorescein], for which the “condition of mice (toxicity test)” value in the data set on MDA-MB-231 tumors was “healthy”.
